Source: PMC10726475, “Atypical N-Alkyl to N-Noralkoxy Switch in a Dual cSRC/BCR-ABL1 Kinase Inhibitor Improves Drug Efflux and hERG Affinity” (ACS Medicinal Chemistry Letters, 2023)

Target: CYP2D6 (Homo sapiens, UniProt P10635)
Assay: in vitro
Conditions: both, microsomes, CYP2D6 Inhibition percentage(%) at Top conc.

Sequence of CYP2D6 (P10635 whole entry): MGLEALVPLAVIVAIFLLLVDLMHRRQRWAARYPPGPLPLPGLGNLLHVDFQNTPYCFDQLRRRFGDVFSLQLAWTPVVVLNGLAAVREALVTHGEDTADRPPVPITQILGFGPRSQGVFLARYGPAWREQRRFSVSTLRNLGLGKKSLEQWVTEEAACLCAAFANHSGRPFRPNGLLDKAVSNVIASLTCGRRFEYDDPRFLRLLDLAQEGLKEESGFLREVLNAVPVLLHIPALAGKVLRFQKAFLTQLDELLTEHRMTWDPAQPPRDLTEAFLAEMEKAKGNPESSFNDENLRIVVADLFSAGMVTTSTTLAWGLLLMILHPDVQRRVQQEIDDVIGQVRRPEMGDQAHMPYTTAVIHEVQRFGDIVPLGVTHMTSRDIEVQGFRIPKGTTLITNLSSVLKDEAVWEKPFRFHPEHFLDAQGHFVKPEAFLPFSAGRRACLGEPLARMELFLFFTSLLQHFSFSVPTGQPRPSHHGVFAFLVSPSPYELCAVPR

inhibition at 20 min: 91.7%
Structure (SMILES): Fc1ccc([C@@H]2CCNC[C@H]2COc2ccc3c(c2)OCO3)cc1 [Paroxetine]
